Assay results as given in patent US8642594B2, “Substituted thieno[2,3-d]pyrimidines as HSP90 inhibitors” (Vernalis (R&D) Limited, priority 2003, dated 2014).

Target: T1, Human full-length Hsp90 (Homo sapiens, UniProt P08238)
T1 construct: E. coli expressed human full-length HSP90 protein, purified >95%; made in house; host or cells: E. coli
Experiment: Fluorescence polarization assay (competitive binding to HSP90, probe RBT0045864-FAM)
Settings: not given
Outline: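 Competitive fluorescence polarization: test compound displaces FAM-labelled probe RBT0045864-FAM (200 nM working solution) from HSP90 after equilibration, and anisotropy change is measured. Compounds serially diluted; BSA-containing buffer; standard compound as positive control; Z′ from zero and positive controls.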

T1 sequence (P08238 whole entry): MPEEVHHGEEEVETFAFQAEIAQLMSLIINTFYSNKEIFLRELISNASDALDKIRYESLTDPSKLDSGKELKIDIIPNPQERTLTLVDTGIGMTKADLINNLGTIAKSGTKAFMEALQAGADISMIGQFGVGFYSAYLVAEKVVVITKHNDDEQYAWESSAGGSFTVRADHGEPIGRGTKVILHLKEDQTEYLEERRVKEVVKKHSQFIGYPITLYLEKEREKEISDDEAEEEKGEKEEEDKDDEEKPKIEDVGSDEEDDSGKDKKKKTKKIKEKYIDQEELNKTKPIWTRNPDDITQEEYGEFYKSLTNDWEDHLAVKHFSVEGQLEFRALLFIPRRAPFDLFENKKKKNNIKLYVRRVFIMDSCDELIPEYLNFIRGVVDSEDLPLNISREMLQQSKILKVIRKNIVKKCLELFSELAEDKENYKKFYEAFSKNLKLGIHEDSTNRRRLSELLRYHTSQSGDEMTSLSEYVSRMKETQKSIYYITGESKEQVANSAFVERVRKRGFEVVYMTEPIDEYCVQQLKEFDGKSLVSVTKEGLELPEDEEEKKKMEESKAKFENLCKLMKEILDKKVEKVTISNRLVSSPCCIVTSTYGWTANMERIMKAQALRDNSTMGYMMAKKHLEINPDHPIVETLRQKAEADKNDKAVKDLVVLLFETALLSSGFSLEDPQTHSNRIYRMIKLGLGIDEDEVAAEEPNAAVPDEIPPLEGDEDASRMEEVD

Compound	IC50 [µM]
CCNC(=O)c1cc2c(-c3cc(OCCNCCOC)c(Cl)cc3Cl)nc(N)nc2s1 [Example 247]	< 10

Same assay, conditions: fluorescence polarization assay, activity range; read-out: Hsp90 FP IC50

Compound	IC50 [µM]
Nc1nc(-c2ccccc2)c2cc(C(=O)NCCc3ccccc3)sc2n1 [Example 49]	> 10
C=C(c1ccccc1)c1nc(N)nc2sc(C(=O)NCC)cc12 [Example 283]	< 10
CCOC(=O)c1cc2c(C(=O)c3cc(C)c(C)cc3C)nc(N)nc2s1 [Example 308]	< 10
Nc1nc(-c2ccc(Cl)cc2Cl)c2cc(C(=O)NCc3cccc(C(F)(F)F)c3)sc2n1 [Example 122]	< 10
CCNC(=O)c1cc2c(-c3cc(CNCCc4ccccc4)ccc3C)nc(N)nc2s1 [Example 215]	< 10
CCNCc1ccc(C)c(-c2nc(N)nc3sc(C(=O)NCC)cc23)c1 [Example 206]	< 10
Nc1nc(-c2ccccc2)c2cc(C(=O)NCCCN3CCOCC3)sc2n1 [Example 66]	> 10
Nc1nc(-c2ccccc2)c2cc(C(=O)NCCc3cccnc3)sc2n1 [Example 51]	> 10
CSCC[C@H](NC(=O)c1cc2c(-c3ccc(Cl)cc3Cl)nc(N)nc2s1)C(N)=O [Example 166]	< 10
CCNC(=O)c1cc2c(-c3cc(CNCCc4cccs4)ccc3C)nc(N)nc2s1 [Example 214]	< 10
CCNC(=O)c1cc2c(-c3cc(OCc4ccccn4)c(Cl)cc3Cl)nc(N)nc2s1 [Example 261]	< 10

The next lines start with the values.

IC50 [µM]	Compound
> 10	CCOC(=O)c1cc2c(-c3ccc(C(F)(F)F)cc3)nc(N)nc2s1 [Example 2, 2-Amino-4-(4-trifluoromethyl-phenyl)-thieno[2,3-d]pyrimidine-6-carboxylic acid ethyl ester]
< 10	CCOC(=O)c1cc2c(/C=C/c3ccc(F)cc3)nc(N)nc2s1 [Example 282]
< 10	CCOC(=O)c1cc2c(C(=O)c3ccc4c(c3)OCCO4)nc(N)nc2s1 [Example 312]
> 10	CCC/C=C/c1nc(N)nc2sc(C(=O)OCC)cc12 [Example 292]
< 10	CCOC(=O)c1cc2c(C(=O)c3ccc(Cl)c(Cl)c3)nc(N)nc2s1 [Example 309]
> 10	CCOC(=O)c1cc2c(Oc3ccccc3)nc(N)nc2s1 [Example 19]
> 10	CCOC(=O)c1cc2c(-c3ccc(CN4CCCCC4)cc3)nc(N)nc2s1 [Example 33, 2-Amino-4-(4-piperidin-1-ylmethyl-phenyl)-thieno[2,3-d]pyrimidine-6-carboxylic acid ethyl ester]
< 10	CCOC(=O)c1cc2c(-c3ccc(Cl)cc3)nc(N)nc2s1 [Example 169]
< 10	CCOC(=O)c1cc2c(C(=O)c3ccccc3C)nc(N)nc2s1 [Example 311]
< 10	CCOC(=O)c1cc2c(-c3cc(C=O)ccc3C)nc(N)nc2s1 [Example 196, 2-Amino-4-(5-formyl-2-methyl-phenyl)-thieno[2,3-d]pyrimidine-6-carboxylic acid ethyl ester]

Test system: not listed separately
Experiment: Sulforhodamine B (SRB) growth inhibition / growth arrest assay
Format: cell-based
Settings: activity range
Experimental: A growth inhibition assay was also employed for the evaluation of candidate HSP90 inhibitors:
Assessment of Cytotoxicity by Sulforhodamine B (SRB) Assay: Calculation of 50% Inhibitory Concentration (IC50).
Day 1 • 1) Determine cell number by haemocytometer. • 2) Using an 8 channel multipipettor, add 160 μl of the cell suspension (3600 cells/well or 2×10^4 cells/ml) to each well of a 96-well microtitre plate. • 3) Incubate overnight at 37° C. in a CO2 incubator. Day 2 • 4) Stock solutions of drugs are prepared, and serial dilutions of each drug are performed in medium to give final concentrations in wells. • 5) Using a multipipettor, 40 μl of drug (at 5× final concentration) is added to quadruplicate wells. • 6) Control wells are at either side of the 96 well plates, where 40 μl of medium is added. • 7) Incubate plates in CO2 incubator for 4 days […]. […] Leave for 15 mins. • 12) Wash off unbound SRB stain with four washes of 1% acetic acid. • 13) Dry plates in incubator. • 14) Solubilise SRB using 100 μl of 10 mM Tris base and put plates on plate shaker for 5 mins. • 15) Determine absorbance at 540 nm using a plate reader. Calculate mean absorbance for quadruplicate wells and express as a percentage of value for control, untreated wells. • 16) Plot % absorbance values versus log drug concentration and determine the IC50.

Compound	IC50 [µM]
CCOC(=O)c1cc2c(-c3ccc(C(F)(F)F)cc3)nc(N)nc2s1 [Example 2, 2-Amino-4-(4-trifluoromethyl-phenyl)-thieno[2,3-d]pyrimidine-6-carboxylic acid ethyl ester]	< 50
